This is an account of results in US20220409696A1, “Heparin-Associated Polypeptides and Uses Thereof” (Juvena Therapeutics, Inc., priority 2021, published 2022).

For data set [1], the system named is human myoblast cells. The data set is described as follows: Differentiation of human myoblast cells, MyHC immunostaining. The data set is classed as cell-based. To be noted: for % MyHC: 96 hours with daily media change; for percentage area of MyHC compared with vehicle control: 96 hours, One-Way ANOVA Tukey. As to the method: FIG. 1A: The suspension CHO cells were transiently transfected with the IGF2-hFcm encoding plasmid. IGF2-hFcm was affinity-purified by Protein A membrane column. The purified IGF2-hFcm was added into the culture of human myoblast cells for 96 hours. Myosin heavy chain (MyHC) was immunostained and imaged by a fluorescence microscope.
FIG. 1B: The suspension CHO cells were transiently transfected with the IGF2-LhFc4 encoding plasmid. IGF2-LhFc4 was affinity-purified by Protein A membrane column. The purified IGF2-LhFc4 was added into the culture of human myoblast cells for 96 hours with daily media change. Myosin heavy chain (MyHC) was immunostained and imaged by a fluorescence microscope.
FIG. 2A: The suspension CHO cells were transiently transfected with the HSA-L-IGF2R61A encoding plasmid. HSA-L-IGF2R61A was affinity-purified by Protein A membrane column. The purified HSA-L-IGF2R61A was added into the culture of human myoblast cells for 96 hours with daily media change. Myosin heavy chain (MyHC) was immunostained and imaged by a fluorescence microscope.
Suspension CHO cells were transiently transfected with the IGF2-hFcm encoding plasmid. After four days, the culture supernatants were collected and IGF2-hFcm was affinity-purified by Protein A membrane column. The purified IGF2-hFcm was added into the culture of human myoblast cells. Myosin heavy chain (MyHC) was immunostained and imaged by a fluorescent microscope. After quantification of the stained MyHC, the percentage area of MyHC was calculated as the percent of pixels within the field that are illuminated above background in the stained channel. […] Significance was determined by a p-value less than 0.05 by the one-way ANOVA Tukey Honest Significant Difference test.

Data set [2] relates to DM1 human myoblast. The data set is described as follows: Gene expression fold change in DM1 human myoblast. The data set is classed as cell-based. Particulars: 48 h; BMP7 50 ng/mL, Butyrate 100 nM, IGF2 200 ng/mL. As to the method: Myoblasts were cultured 48 h in the presence of factors (BMP7 50 ng/mL, Butyrate 100 nM, IGF2 200 ng/mL).
Myoblasts were cultured 96 h in the presence of factors (IGF2 200 ng/mL). […] Myoblasts were cultured 48 h in the presence of factors (IGF2 200 ng/mL).
RNA was isolated from each well (RNeasy Mini Kit, Qiagen) and cDNA was obtained by reverse-transcription (High Capacity Reverse Transcription Kit, Thermo Fisher Scientific). Real-time quantitative PCR was performed using QuantStudio3 (Thermo Fisher).
IGF2 was tested individually for its ability to promote proliferation and/or fusion of human muscle progenitor cells from an individual with myotonic dystrophy type 1 (hMD)—a muscular dystrophy caused by mutations in the DMPK1 gene. The effect of IGF2 on myogenic activity was assayed in biological triplicate across a range of concentrations centered around expected physiological levels by adding each factor to hMD myoblasts for 72 hours with daily media changes (DMEM+2% horse serum) and a second pulse of factors at the first media change. After 72 or 96 hours, cells were pulsed for 2-5 hours with EdU (30 uM), ethanol fixed, stained with Hoescht 3342, immunostained for proliferation—as measured by the percent of cells staining positive for EdU (% EdU)-, and immunostained for differentiation—as measured by the increase in cellular area staining positive for embryonic myosin heavy chain (% eMyHC) relative to the negative controls, which received media and vehicle only. Wells were imaged on a Keyence BZ-100 at 4×, the images quantified in Cell Profiler, and the statistics were computed in R. Additionally, RNA was extracted from myoblast and select transcript abundances quantified by qPCR.

The test system of data set [3] is Mouse myoblasts. The data set is described as follows: Mouse myoblast fusion index with sodium butyrate. The data set is classed as cell-based. To be noted: 48 h. As to the method: Mouse myoblasts were treated with PBS or sodium butyrate at concentrations 0.1 nM, 1 nM, and 10 nM. Myoblasts were cultured for 48 hours, with fresh media added every 24 hours. Cells were pulsed for 2-5 hours with EdU (30 uM), ethanol fixed, stained with Hoescht 3342, immunostained for proliferation—as measured by the percent of cells staining positive for EdU (% EdU)-, and immunostained for differentiation—as measured by the increase in cellular area staining positive for embryonic myosin heavy chain (% eMyHC) relative to the negative controls, which received media and vehicle only. […] Significance was determined by a p-value less than 0.05 by the one-way ANOVA Tukey Honest Significant Difference test.
FIG. 3A: Bar graph of fusion index in response to sodium butyrate (NaBut) compared to vehicle. Myoblast were cultured 48 h in the presence of NaBut at indicated dose. Fresh media and NaBut were added every 24 h. Mean∓S.D. Table with quantitation of fusion index and p-values also shown. (*p<0.05 by Student's Two-tailed T-test, n=3−5)

The test system of data set [4] is human myoblast cells. The data set is described as follows: Human myoblast differentiation (% eMyHC area), IGF2 and/or sodium butyrate. The data set is classed as cell-based. As to the method: Human myoblast cells were treated with either PBS (vehicle), IGF2 (15 ng/mL), sodium butyrate, or IGF2 and sodium butyrate. Fresh media was added every 24 hours. After 96 hours, cells were pulsed for 2-5 hours with EdU (30 uM), ethanol fixed, stained with Hoescht 3342, immunostained for proliferation—as measured by the percent of cells staining positive for EdU (% EdU)-, and immunostained for differentiation—as measured by the increase in cellular area staining positive for embryonic myosin heavy chain (% eMyHC) relative to the negative controls, which received media and vehicle only. The total area of eMyHc positive cells was analyzed, and treated cells were compared to cells treated with the vehicle alone. […] Significance was determined by a p-value less than 0.05 by the one-way ANOVA Tukey Honest Significant Difference test.
FIG. 3C Bar graph quantitation of % Area eMyHC+ human myoblast in response to indicated treatment compared to IGF2 (15 ng/mL). Myoblast were cultured 96 h in the presence of IGF2 at indicated dose. Fresh media and IGF2 was added every 24 h.
Human myoblast cells were treated with either PBS (vehicle), IGF2 (15 ng/mL), sodium butyrate, or IGF2 and sodium butyrate. Fresh media was added every 24 hours. After 48 hours, cells were pulsed for 2-5 hours with EdU (30 uM), ethanol fixed, stained with Hoescht 3342, immunostained for proliferation […] as measured by the percent of cells staining positive for EdU (% EdU)-, and immunostained for differentiation—as measured by the increase in cellular area staining positive for embryonic myosin heavy chain (% eMyHC) relative to the negative controls, which received media and vehicle only.
Significance was determined by a p-value less than 0.05 by the one-way ANOVA Tukey Honest Significant Difference test.

The nature of data set [5]: Backbone cleavage on expression from CHO cells (reducing SDS-PAGE, Western blot). The method, then:
The amino acid backbone of IGF2 is cleaved when expressed from Chinese Hamster Ovary (CHO) cells (FIG. 13A) as visualized on a reducing SDS-PAGE and Western blot (FIG. 13B). The CHO cells were grown in a 37° C. incubator with a humidified atmosphere of 8% CO2 on an orbital shaker platform with a shaking speed 125 rpm to reach 4E6 cells/mL, followed by transferring the calculated volume of cells to fresh, pre-warmed ExpiCHO™ Expression Medium in a shake flask. Incubated flasks in a 37° C. incubator with a humidified atmosphere of 8% CO2 shook on an orbital shaker platform until cultures reached a density of 4×106-6×10^6 viable cells/mL. After mixing each plasmid with 100 ul SFM in a microtube; ExpiFectamine (8 ul×10.5=84 ul) with OptiPro medium (92 ul×10.5=966 ul) in a microtube; adding 100 ul into the plasmid tube and mix by pipetting; After 5 min, add 200 ul into each well and swirl to mix. mix enhancer (15×10.2=153 ul) with feed (600×10.2=6.12 ml), add 615 ul into each well. Culture supernatant collected at intervals was spun down at low speed and high speed, then frozen at −80 deg. Aliquots were analyzed for protein concentration by nanodrop, and then an equivalent amount loaded onto 4-12% SDS-PAGE gels for molecular weight distribution analysis. […]
On the technique in general: In western blotting, separated proteins are transferred to a membrane and probed.

Data set [6] has as its target rhIGFBP3 (Homo sapiens, UniProt P17936). The data set is described as follows: Interaction with rhIGFBP3 by size exclusion chromatography (HPLC). The data set is classed as binding. Particulars: 1:1 stoichiometric mixture. From the text: In physiological conditions IGF2 will bind IGF binding proteins (IGFBPs). The purpose of this study was to determine if mutant sequences of IGF2 interact with IGFBPs. Retention time across a size exclusions chromatography column is proportional to the size of the molecule. Thus molecular interactions can be ascertained by a corresponding change in retention time on a size exclusions chromatography column.
On the technique in general: SEC sorts molecules by how far they enter the pores of the column.

Data set [7] concerns human DM1 muscle precursors from person. The data set is described as follows: In vitro myogenesis assay, human DM1 muscle precursors. The data set is classed as cell-based. To be noted: equimolar concentrations across a range of concentrations. As to the method: (§1) Human muscle progenitor cells (early passage myoblasts) were cultured and expanded in growth medium: Ham's F-10 (Gibco), 20% Bovine Growth Serum (Hyclone), 5 ng/mL FGF2 and 1% penicillin-streptomycin on Matrigel coated plates (1:300 matrigel: PBS), at 37° C. and 5% CO2. For experimental conditions, cells were plated at 40,000 cells/well on Matrigel coated 8-well chamber slides in 250-500 μL medium per well (1:100 matrigel: PBS) in human fusion medium: DMEM (Gibco)+2% horse serum (Hyclone). One hour after plating, human myoblasts were treated with 50% respective media: […] were cultured for 24 hours in the above conditions, at 37° C. in 10% CO2 incubator. BrdU (300 μM) in DMSO was added for 2 hours prior to fixation with cold 70% ethanol and stored at 4° C. until staining.
(§2) Following permeabilization in PBS+0.25% Triton X-100, antigen retrieval was performed. Primary staining was performed with primary antibodies including: a species-specific monoclonal antibody for mouse anti-embryonic Myosin Heavy Chain (eMyHC, hybridoma clone 1.652, Developmental Studies Hybridoma Bank) and Rat-anti-BrdU (Abcam Inc. ab6326). […]

The subject of data set [8] is healthy human muscle precursors from person. The data set is described as follows: In vitro myogenesis assay, healthy human muscle precursors. The class given is cell-based. The method, then:
as §1, §2

A short description of data set [9]: Pharmacokinetics after intravenous injection in mice. The data set is classed as in vivo. The method, then:
Murine pharmacokinetics (PK) represents the absorption, distribution, metabolism, and elimination of drugs from the body. The pharmacokinetic profile of the therapeutic polypeptides were determined in mice (10-12 weeks old). Mice were fed ad libitum and housed under controlled conditions of lighting (12-hour light/12-hour dark) and temperature (22-24° C.). Mice were allowed to acclimate for 3 days prior to the initiation of the experiment. Intravenous (IV) injection in 10-12 weeks old mice. Engineered mitogenic polypeptides concentrations in the samples were measured by ELISA. Various pharmacokinetics will be calculated as well as the absorption/elimination dynamics following different routes of administration.

Chain of rhIGFBP3 (P17936 28-291): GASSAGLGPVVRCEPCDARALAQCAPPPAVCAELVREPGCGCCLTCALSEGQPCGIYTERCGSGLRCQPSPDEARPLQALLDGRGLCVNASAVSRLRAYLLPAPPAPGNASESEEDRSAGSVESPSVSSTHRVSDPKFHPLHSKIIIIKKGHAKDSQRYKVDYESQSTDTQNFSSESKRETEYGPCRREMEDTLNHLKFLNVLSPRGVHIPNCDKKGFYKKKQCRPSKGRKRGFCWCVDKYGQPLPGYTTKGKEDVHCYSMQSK

As to “IGF2-hFc4: Human IGF2-hFc4, SEQ ID NO 39”, the “% MyHC” value in [1] (FIG. 1B, Example 3) was determined as 6.901%.

In the case of `CCCC(=O)[O-].[Na+]` [NaBut, sodium butyrate], in [2], the “MYF5 myogenic gene expression fold change compared to FM (vehicle)” value came out at 1.128. The “MYODI myogenic gene expression fold change compared to FM (vehicle)” value in [2] is on record as 1.095. For the same compound, the “MYOG myogenic gene expression fold change compared to FM (vehicle)” value in [2] is 1.020. Besides, the “Fusion Index (nuclei/myotube)” value is on record as 8.44 nuclei/myotube in data set [3] (NaBut 0.1 nM); 31.60 nuclei/myotube in data set [3] (NaBut 1 nM); “increased rates of fusion” in data set [3] (NaBut 1 nM, listed as sodium butyrate); 14.00 nuclei/myotube in data set [3] (NaBut 10 nM). Besides, the “% eMyHC” value in [4] (NaBut 1 nM, 96 h (FIG. 3B)) worked out at 2.321%; in [4] (NaBut 1 nM, after 48 hours (FIG. 4A)), 2.321%; in [4] (NaBut 10 nM, 96 h (FIG. 3B)) it was 6.199%; in data set [4] (NaBut 10 nM, after 48 hours (FIG. 4A)), 6.199%; in data set [4] (NaBut 100 nM, 96 h (FIG. 3B)), 8.341%; in [4] (NaBut 100 nM, after 48 hours (FIG. 4A)) it was 8.341%.

“HSA-IGF2: His tagged HSA fusion IGF2 with a long linker, SEQ ID NO 33”: in data set [5], the “cleavage of the amino acid backbone when expressed from CHO cells” value is recorded as “cleaved”. In data set [1] (FIG. 2A, Example 4), the “% MyHC” value is reported as 7.079%.

Consider “hFc4L-IGF2: hFc4-linker3-human IGF2, SEQ ID NO 40”, for which the “% MyHC” value in data set [1] (FIG. 1B, Example 3) stood at 5.820%.

For the compound “IGF2-LhFc4: Human IGF2-linker3-hFc4 (human IgG4 Fc with S228P), SEQ ID NO 38”, the “percentage area of MyHC compared with vehicle control” value in data set [1] is recorded as “significantly higher”. In addition, the “% MyHC” value in data set [1] (FIG. 1B, Example 3) was found to be 6.237%.

As to “HSA-IGF2R61A: His tagged HSA fusion IGF2 R61A mutant with a long linker, SEQ ID NO: 34”, in data set [6], the “interaction with rhIGFBP3 (mass shift in size exclusion chromatography)” value is on record as “preserved affinity”. Also, the “myogenic activity relative to IGF2” value in data set [7] and in data set [8] (equimolar concentrations across a range of concentrations) was “equal activity” each time. For the same compound, the “myogenic activity relative to HSA-IGF2” value in data set [8] (equimolar concentrations, before or after size exclusion purification via HPLC) is recorded as “equal or increased activity”. Further, the “serum half-life compared to the natural sequence of IGF2” value in data set [9] (mice) was “significantly improved”. Moreover, the Half-life in [9] (mice 10-12 weeks old, dose 10 mg/kg (HSA-IGF2R61A), 600 ug/kg (IGF2), Non-Compartment Analysis) turned out to be 20.81 h. Also, the “percentage area of MyHC compared with vehicle control” value in [1] is given as “significantly higher”. Also, in data set [1] (FIG. 2A, Example 4), the “% MyHC” value is reported as 6.914%.
